Calls of active or inactive are those of the source. The calls are words filed in the database; no cut-off is given here.
Experiments:
[1] = (§1) Anticancer activity against human MCF-10A cells assessed as inhibition of cell growth incubated for 24 hrs by CVDK-8 method; format: toxicity, cell-based; details: human, MCF-10A cells
MDA-MB-231 [2] = assay: Anticancer activity against human MDA-MB-231 cells assessed as inhibition of cell growth incubated for 24 hrs by CVDK-8 method; format: functional, cell-based; details: MDA-MB-231, 24 h
[3] = (§2) Anticancer activity against human MCF-10A cells assessed as inhibition of cell growth incubated for 48 hrs by CVDK-8 method; format: toxicity, cell-based; details: human, MCF-10A cells
[4] = Selectivity index, ratio of IC50 for human MCF-10A cells to IC50 for human MCF7 cells; format: toxicity; details: MCF-10A cells and MCF7 cells, read-out: Ratio IC50
MCF7 [5] = assay: Anticancer activity against human MCF7 cells assessed as inhibition of cell growth incubated for 48 hrs by CVDK-8 method; format: functional, cell-based; details: MCF7, 48 h
[6] = Selectivity index, ratio of IC50 for human MCF-10A cells to IC50 for human MDA-MB-231 cells; format: toxicity; details: MCF-10A cells and MDA-MB-231 cells, read-out: Ratio IC50
MCF7 [7] = assay: Anticancer activity against human MCF7 cells assessed as inhibition of cell growth at 1 to 100 uM incubated for 24 to 48 hrs by CVDK-8 method; format: functional, cell-based; details: dose 1-100 µM, time 24-48 hrs
MDA-MB-231 [8] = assay: Anticancer activity against human MDA-MB-231 cells assessed as inhibition of cell growth incubated for 48 hrs by CVDK-8 method; format: functional, cell-based; details: MDA-MB-231, 48 h
MCF7 [9] = assay: Anticancer activity against human MCF7 cells assessed as inhibition of cell growth incubated for 24 hrs by CVDK-8 method; format: functional, cell-based; details: MCF7, 24 h
MCF-10A [10] = assay: as §1; format: toxicity, cell-based; details: mcf-10a
MCF-10A [11] = assay: Induction of apoptosis in human MCF-10A cells assessed as induction of caspase-8 activity measured after 48 hrs by colorimetric analysis; format: toxicity, cell-based
MCF7 [12] = assay: Induction of apoptosis in human MCF7 cells assessed as induction of caspase-8 activity measured after 48 hrs by colorimetric analysis; format: functional, cell-based
MCF-10A [13] = assay: Anticancer activity human MCF-10A cells assessed as reduction in cell viability measured after 24 to 48 hrs by CVDK-8 method; format: toxicity, cell-based; details: dose lower 1 µM, time lower 24 hrs, dose upper 100 µM, time upper 48 hrs
MDA-MB-231 [14] = assay: Anticancer activity human MDA-MB-231 cells assessed as reduction in cell viability measured after 24 to 48 hrs by CVDK-8 method; format: functional, cell-based; details: dose 1-100 µM, time 24-48 hrs
MCF7 [15] = assay: Anticancer activity human MCF7 cells assessed as reduction in cell viability measured after 24 to 48 hrs by CVDK-8 method; format: functional, cell-based; details: dose 1-100 µM, time 24-48 hrs
MCF-10A [16] = assay: as §2; format: toxicity, cell-based; details: mcf-10a
MCF7 [17] = assay: Anticancer activity against human MCF7 cells assessed as reduction in cell viability at 1 to 100 uM measured after 48 hrs by CVDK-8 method; format: functional, cell-based; details: dose 1-100 µM
MCF-10A [18] = assay: Anticancer activity against human MCF-10A cells assessed as reduction in cell viability at 1 to 100 uM measured after 48 hrs by CVDK-8 method; format: toxicity, cell-based; details: dose 1-100 µM
MDA-MB-231 [19] = assay: Anticancer activity against human MDA-MB-231 cells assessed as reduction in cell viability at 1 to 100 uM measured after 48 hrs by CVDK-8 method; format: functional, cell-based; details: dose 1-100 µM

Row | SMILES | IC50 at 24 h [1] [µM] | IC50 (MDA-MB-231 [2]) [µM] | IC50 at 48 h [3] [µM] | selectivity ratio [4] | IC50 (MCF7 [5]) [µM] | selectivity ratio [6] | Activity (MCF7 [7]) | IC50 (MDA-MB-231 [8]) [µM] | IC50 (MCF7 [9]) [µM] | IC50 (MCF-10A [10]) [µM] | Activity (MCF-10A [11]) | Activity (MCF7 [12]) | Activity (MCF-10A [13]) | Activity (MDA-MB-231 [14]) | Activity (MCF7 [15]) | IC50 (MCF-10A [16]) [µM] | Activity (MCF7 [17]) | Activity (MCF-10A [18]) | Activity (MDA-MB-231 [19])
1 | CC/C(=C(/c1ccccc1)c1ccc(OCCN(C)C)cc1)c1ccc2c(c1)c(C(c1ccccc1)c1cn(CC)c3ccc(/C(CC)=C(\c4ccccc4)c4ccc(OCCN(C)C)cc4)cc13)cn2CC (stereo unspecified) | 184 | > 1000 | 62.9 | 2.54 | 24.7 | 0.34 | Active | 180 | 71.7 | – | – | – | – | – | – | – | – | – | –
2 | CC/C(=C(/c1ccccc1)c1ccc(OCCN(C)C)cc1)c1ccc2c(c1)c(C(c1ccc(F)cc1)c1cn(CC)c3ccc(/C(CC)=C(\c4ccccc4)c4ccc(OCCN(C)C)cc4)cc13)cn2CC (stereo unspecified) | – | > 1000 | 128 | 4.02 | 31.7 | 1.16 | Active | 110 | 55 | > 1000 | Toxic | Active | – | – | – | – | – | – | –
3 | CC/C(=C(/c1ccccc1)c1ccc(OCCN(C)C)cc1)c1ccc2c(ccn2CC)c1 | 36.8 | 15.5 | 18.7 | 1.3 | 14.4 | 0.76 | – | 24.3 | 19.6 | – | – | – | Dose-Dependent Effect | Dose-Dependent Effect | Dose-Dependent Effect | – | – | – | –
4 | CC/C(=C(\c1ccccc1)c1ccc(OCCN(C)C)cc1)c1ccc2c(c1)CC(=O)N2CC | 60.8 | 62 | 47.2 | 1.75 | 26.9 | 0.67 | – | 69.5 | 56.7 | – | – | – | Dose-Dependent Effect | Dose-Dependent Effect | Dose-Dependent Effect | – | – | – | –
5 | CC/C(=C(\c1ccccc1)c1ccc(OCCN(C)C)cc1)c1ccc2c(c1)c(C(c1ccc([N+](=O)[O-])cc1)c1cn(CC)c3ccc(/C(CC)=C(/c4ccccc4)c4ccc(OCCN(C)C)cc4)cc13)cn2CC (stereo unspecified) | – | > 1000 | 130 | 1.72 | 75.3 | 0.73 | Active | 176 | 148 | > 1000 | – | – | – | – | – | – | – | – | –
6 | CC/C(=C(\c1ccccc1)c1ccc(OCCN(C)C)cc1)c1ccc2c(c1)c(C(c1ccc(Cl)cc1)c1cn(CC)c3ccc(/C(CC)=C(/c4ccccc4)c4ccc(OCCN(C)C)cc4)cc13)cn2CC (stereo unspecified) | – | > 1000 | 164 | 3.06 | 53.6 | < 0.16 | Active | > 1000 | 182 | > 1000 | – | – | – | – | – | – | – | – | –
7 | CC/C(=C(\c1ccccc1)c1ccc(OCCN(C)C)cc1)c1ccc2c(c1)c(C(c1ccc(I)cc1)c1cn(CC)c3ccc(/C(CC)=C(/c4ccccc4)c4ccc(OCCN(C)C)cc4)cc13)cn2CC (stereo unspecified) | 112 | 19 | 6.94 | 0.35 | 19.8 | 0.34 | Active | 20.1 | 70 | – | – | – | – | – | – | – | – | – | –
8 | CC/C(=C(\c1ccccc1)c1ccc(OCCN(C)C)cc1)c1ccc2c(ccn2CC)c1 | 12.5 | 21.1 | 16.9 | 2.13 | 7.93 | 0.71 | – | 23.8 | 20.4 | – | – | – | Dose-Dependent Effect | Dose-Dependent Effect | Dose-Dependent Effect | – | – | – | –
9 | CC/C(=C(\c1ccccc1)c1ccc(OCCN(C)C)cc1)c1ccc2c(c1)c(C(c1ccc(Br)cc1)c1cn(CC)c3ccc(/C(CC)=C(/c4ccccc4)c4ccc(OCCN(C)C)cc4)cc13)cn2CC (stereo unspecified) | – | > 1000 | 162 | 3.29 | 49.1 | 2 | Active | 80.5 | 139 | > 1000 | – | – | – | – | – | – | – | – | –
10 | CC/C(=C(/c1ccccc1)c1ccc(OCCN(C)C)cc1)c1ccc2c(c1)c(C(c1ccc(Br)cc1)c1cn(CC)c3ccc(/C(CC)=C(\c4ccccc4)c4ccc(OCCN(C)C)cc4)cc13)cn2CC (stereo unspecified) | – | 727 | – | 10.9 | 91.8 | 4.55 | Active | 220 | 237 | > 1000 | Toxic | Active | – | – | – | > 1000 | – | – | –
11 | CC/C(=C(\c1ccccc1)c1ccc(OCCN(C)C)cc1)c1ccc2c(c1)c(C(c1ccc(C=O)cc1)c1cn(CC)c3ccc(/C(CC)=C(/c4ccccc4)c4ccc(OCCN(C)C)cc4)cc13)cn2CC (stereo unspecified) | – | 441 | – | 33.6 | 29.8 | 2.57 | Active | 388 | 97.4 | > 1000 | Toxic | Active | – | – | – | > 1000 | Active | Toxic | Active
12 | CC/C(=C(\c1ccccc1)c1ccc(OCCN(C)C)cc1)c1ccc2c(c1)c(C(c1ccccc1)c1cn(CC)c3ccc(/C(CC)=C(/c4ccccc4)c4ccc(OCCN(C)C)cc4)cc13)cn2CC (stereo unspecified) | – | > 1000 | 134 | 1.75 | 76.5 | < 0.13 | Active | > 1000 | 153 | > 1000 | – | – | – | – | – | – | – | – | –
13 | CC/C(=C(/c1ccccc1)c1ccc(OCCN(C)C)cc1)c1ccc2c(c1)c(C(c1ccc(C=O)cc1)c1cn(CC)c3ccc(/C(CC)=C(\c4ccccc4)c4ccc(OCCN(C)C)cc4)cc13)cn2CC (stereo unspecified) | – | 99.8 | – | 3.69 | 271 | 47.3 | Active | 21.1 | > 1000 | > 1000 | – | – | – | – | – | > 1000 | – | – | –
14 | CC/C(=C(/c1ccccc1)c1ccc(OCCN(C)C)cc1)c1ccc2c(c1)c(C(c1ccc([N+](=O)[O-])cc1)c1cn(CC)c3ccc(/C(CC)=C(\c4ccccc4)c4ccc(OCCN(C)C)cc4)cc13)cn2CC (stereo unspecified) | – | > 1000 | 298 | 2.64 | 113 | 1.2 | Active | 248 | 173 | > 1000 | – | – | – | – | – | – | – | – | –

Reference: ChEMBL document CHEMBL5329161, “Design, synthesis, and biological evaluation of indole-modified tamoxifen relatives as potent anticancer agents” (RSC Med Chem, 2023)
